Reference: ChEMBL document CHEMBL4837243, “Discovery of TDI-10229: A Potent and Orally Bioavailable Inhibitor of Soluble Adenylyl Cyclase (sAC, ADCY10)” (ACS Med Chem Lett, 2021)
In brackets after ≈: the same amount, converted by molar mass.

Key:
[1] = Permeability of the compound in PRISMA HT buffer at pH 7.4 at 10 umol/L incubated for 3 hrs bt PAMPA based LC/MS/MS analysis; format: ADME; conditions: dose 10 µmol/L, read-out: permeability
[2] = Octanol-water partition coefficient, logD of the compound at pH 7.4 by HPLC analysis; format: physicochemical
[3] = Kinetic solubility of compound by UV- absorbance analysis
[4] = target: Adenylate cyclase type 10 (Homo sapiens, UniProt Q96PN6)
Description: Inhibition of human soluble adenylyl cyclase assessed as reduction in cAMP levels in the presence of alpha-32p labeled ATP by biochemical assay

[5] = Oral bioavailability in mouse; format: ADME, organism-based; conditions: in vivo
[6] = Clearance in mouse liver microsomes; format: ADME, Microsome; conditions: read-out: CLH
[7] = Clearance in human liver microsomes; format: ADME, Microsome; conditions: read-out: CLH
[8] = Bioavailability in mouse; format: ADME, organism-based; conditions: in vivo, dose 20 mg/kg
[9] = AUC in CD1 mouse at 20 mg/kg, po measured up to 24 hrs; format: ADME, organism-based; set-up: route oral, dose 20 mg/kg, time <=24; conditions: in vivo
[10] = AUC in CD1 mouse at 20 mg/kg, ip measured up to 24 hrs; format: ADME, organism-based; set-up: route intraperitoneal, dose 20 mg/kg, time <=24; conditions: in vivo
[11] = Cmax in CD1 mouse at 20 mg/kg, po measured up to 24 hrs; format: ADME, organism-based; set-up: route oral, dose 20 mg/kg, time <=24; conditions: in vivo
[12] = Cmax in CD1 mouse at 20 mg/kg, ip measured up to 24 hrs; format: ADME, organism-based; set-up: route intraperitoneal, dose 20 mg/kg, time <=24; conditions: in vivo
[13] = Mean residence time in CD1 mouse at 20 mg/kg, po measured up to 24 hrs; format: ADME, organism-based; conditions: in vivo
[14] = Mean residence time in CD1 mouse at 20 mg/kg, ip measured up to 24 hrs; format: ADME, organism-based; conditions: in vivo

Sequence of Adenylate cyclase type 10 (Q96PN6 whole entry): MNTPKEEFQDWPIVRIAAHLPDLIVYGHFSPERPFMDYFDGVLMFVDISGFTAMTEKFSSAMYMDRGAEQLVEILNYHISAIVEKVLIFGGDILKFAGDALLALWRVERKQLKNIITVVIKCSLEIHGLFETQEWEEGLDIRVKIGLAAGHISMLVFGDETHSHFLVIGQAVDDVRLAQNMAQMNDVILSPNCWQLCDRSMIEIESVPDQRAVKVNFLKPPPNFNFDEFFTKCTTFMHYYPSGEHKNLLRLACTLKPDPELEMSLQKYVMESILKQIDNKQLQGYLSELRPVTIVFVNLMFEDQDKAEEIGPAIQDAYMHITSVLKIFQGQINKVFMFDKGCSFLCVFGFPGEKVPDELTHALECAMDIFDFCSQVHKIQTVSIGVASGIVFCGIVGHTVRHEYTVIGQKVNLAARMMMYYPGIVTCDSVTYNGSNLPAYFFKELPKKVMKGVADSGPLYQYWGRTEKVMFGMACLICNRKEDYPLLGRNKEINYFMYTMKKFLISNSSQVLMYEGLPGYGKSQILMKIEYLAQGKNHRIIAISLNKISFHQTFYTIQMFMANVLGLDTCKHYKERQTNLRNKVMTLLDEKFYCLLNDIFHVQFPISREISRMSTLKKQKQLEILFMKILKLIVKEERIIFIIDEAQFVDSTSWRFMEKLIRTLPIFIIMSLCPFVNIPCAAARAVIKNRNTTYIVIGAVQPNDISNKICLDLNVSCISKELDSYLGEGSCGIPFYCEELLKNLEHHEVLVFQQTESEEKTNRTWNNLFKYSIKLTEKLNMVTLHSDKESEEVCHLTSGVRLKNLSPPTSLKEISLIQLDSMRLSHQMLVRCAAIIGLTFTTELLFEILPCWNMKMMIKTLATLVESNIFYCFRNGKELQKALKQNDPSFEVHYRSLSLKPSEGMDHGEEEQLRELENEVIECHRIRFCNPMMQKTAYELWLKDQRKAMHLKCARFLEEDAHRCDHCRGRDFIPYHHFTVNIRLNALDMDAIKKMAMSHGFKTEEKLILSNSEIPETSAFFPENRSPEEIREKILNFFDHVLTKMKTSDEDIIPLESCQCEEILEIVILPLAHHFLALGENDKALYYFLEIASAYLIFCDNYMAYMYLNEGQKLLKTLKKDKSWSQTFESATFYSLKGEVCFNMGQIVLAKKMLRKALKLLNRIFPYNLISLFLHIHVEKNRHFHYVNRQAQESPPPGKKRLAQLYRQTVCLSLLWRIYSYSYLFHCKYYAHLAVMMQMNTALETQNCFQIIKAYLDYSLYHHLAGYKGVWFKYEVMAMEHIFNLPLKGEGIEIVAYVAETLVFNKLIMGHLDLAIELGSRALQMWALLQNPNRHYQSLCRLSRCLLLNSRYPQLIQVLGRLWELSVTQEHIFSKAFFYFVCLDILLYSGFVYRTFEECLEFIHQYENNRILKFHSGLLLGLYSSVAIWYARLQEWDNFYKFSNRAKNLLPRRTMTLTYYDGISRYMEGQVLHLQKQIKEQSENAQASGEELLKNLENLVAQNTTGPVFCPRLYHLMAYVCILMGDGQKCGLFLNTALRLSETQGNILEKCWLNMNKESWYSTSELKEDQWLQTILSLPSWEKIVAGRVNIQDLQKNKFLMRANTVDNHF

| Compound | Papp at 3 h, 10 µM [1] | logD [2] | solubility kinetic [3] | IC50 [4] | also measured |
| --- | --- | --- | --- | --- | --- |
| Cn1cc(Cc2cccs2)c(-c2cc(Cl)nc(N)n2)n1 | 25.8 ×10⁻⁶ cm/s | 2.5 | 6.3 µg/mL (≈ 20.6 µM) | – | – |
| CN(C)Cc1c(Cc2ccccc2)c(-c2cc(Cl)nc(N)n2)nn1C | – | – | – | > 10 µM | – |
| Cc1ccc(Cc2cn(C)nc2-c2cc(Cl)nc(N)n2)s1 | – | – | – | > 1 µM | – |
| Cc1c(Cc2cccs2)c(-c2cc(Cl)nc(N)n2)nn1C | 28 ×10⁻⁶ cm/s | 2.7 | 0.38 µg/mL (≈ 1.19 µM) | – | – |
| Cc1c(Cc2ccnn2C)c(-c2cc(Cl)nc(N)n2)nn1C | – | – | – | > 10 µM | – |
| CNC(=O)c1c(Cc2ccccc2)c(-c2cc(Cl)nc(N)n2)nn1C | – | – | – | > 10 µM | – |
| Cc1cc(-c2nn(C)cc2Cc2cccs2)nc(N)n1 | – | – | – | > 1 µM | – |
| Nc1nc(Cl)cc(N(Cc2cccs2)C2CC2)n1 | – | – | – | – | bioavailability [5]: < 5%; microsomal CLint [6]: > 768 µL/min/mg; microsomal CLint [7]: 360 µL/min/mg |
| Cc1c(Cc2ccccc2)c(-c2cc(Cl)nc(N)n2)nn1C | 27.4 ×10⁻⁶ cm/s | 2.9 | 1.3 µg/mL (≈ 4.14 µM) | – | bioavailability [8]: 59%; AUC at 24 h [9]: 94 µM·h; AUC at 24 h [10]: 72 µM·h; Cmax [11]: 15.5 µM; Cmax [12]: 45 µM; MRT [13]: 3.95 h; MRT [14]: 2.82 h |
| Cn1cc(Cc2cccc(F)c2)c(-c2cc(Cl)nc(N)n2)n1 | 25.7 ×10⁻⁶ cm/s | 2.8 | 7.5 µg/mL (≈ 23.6 µM) | – | – |
